The source of these data is publication PMC6272399, “Anti-Proliferative Effect and Induction of Apoptosis in Androgen-Independent Human Prostate Cancer Cells by 1,5-Bis(2-hydroxyphenyl)-1,4-pentadiene-3-one” (Molecules, 2015).

Structures are written as SMILES.

Test [1] relates to PC-3 cells. Kind of test: MTT cytotoxicity (cell viability) assay, PC-3. It counts as cell-based, human. The method, then: Cell viability was determined by the MTT [3-(4,5-dimethylthiazol-2-yl)-2,5-diphenyltetrazolium bromide] assay, as previously described by Mosmann with modifications. Briefly, cells were detached from the tissue culture flask and pelleted by centrifugation at 1000 rpm for 5 min. Then, the density of the viable cells was counted using a haemocytometer. Cells were then plated in a 96-well flat bottom micro-titer plate (Nunc) at a concentration of 10^4 cells/mL and incubated in a 5% CO2 incubator at 37 °C overnight to allow the cells to adhere to the bottom of the wells. After 24 h, the media was aspirated off and replaced with fresh media containing sample compounds (curcumin and curcumin analogues) of seven different concentrations ranging from 1.56 µM–100 µM and incubated at 37 °C, 5% CO2 for 72 h. Separately, the sample compounds were prepared in a stock solution of 50 mM in 100% dimethyl sulfoxide (DMSO, Molecular Biology Grade, Sigma-Aldrich, St. Louis, MO, USA) and diluted in the culture media to a working concentration of 200 µM. Curcumin, the parent compound which was used as the positive control was also prepared in the similar manner. A two-fold serial dilution was done for each sample in triplicates down the columns of the plate, yielding a final volume and concentration of 100 µL in 0.2% DMSO in each wells. Following treatment, 50 µL MTT solutions (0.5 mg/mL in PBS) was added to each well and incubated for another 4 h at 37 °C in a humidified 5% CO2 incubator. The supernatant was replaced with 100 µL of DMSO and the optical density (OD) was measured at 570/650 nm using a micro-plate ELISA reader (Bio-Rad Laboratories, Hercules, CA, USA). The percentage of viable cells was calculated based on the ratio of the corrected absorbance of sample-treated cells to the corrected absorbance of the control (0.2% DMSO-treated cells) multiplied by 100. The percentage of cell viability was determined as follows: % Cell viability= OD of treated cells /OD of control ×100
For each compound tested, the EC50 value was generated from the log dose-response curves for each cell line using the Graphpad Prism version 5.04 for Windows (Graphpad Software, La Jolla, CA, USA). […] Cytotoxicity of each tested compound is expressed as the EC50 value. Based on the EC50 values, selectivity index (SX) value was also determined. Selectivity index is a special parameter applied as a selectivity indicator of tested compounds towards cancer cells. The SX represents the ratio of EC50 value obtained in toxicity testing using the normal cell lines to the EC50 values of the toxicity testing of the cancer cells, and then multiplied by 100. All the compounds were assessed for their potential toxicity against normal, non-cancerous cells. […] The SX values were calculated using the following equation: SX = EC50 (normal cells)/EC50 (cancer cells) × 100

Test [2] deals with prostate cancer cells. More on the design: method as in PMID 21796654. To be noted: compound labeled ca27; cited from earlier work.

As for `O=C(C=Cc1ccccc1O)C=Cc1ccccc1O` [MS17, 1,5-bis(2-hydroxyphenyl)-1,4-pentadiene-3-one], the EC50 in test [1] (Homo sapiens, PC-3, MTT, 72 h treatment, mean ± SD, three experiments, read-out: EC50 Values (µM) of Compounds on Cell Lines PC-3) was 4.4 ± 0.3 µM. Further, in test [1] (PC-3, MTT, vs untreated), the “dose from which decrease in cell viability is significant” value is reported as 3.1 µM. In addition, the “Selective index (SX) WI-38 vs PC-3” value in test [1] (SX = EC50 (WI-38)/EC50 (PC-3) × 100) amounted to 117.4. Besides, the “Selective index (SX) WRL68 vs PC-3” value in test [1] (SX = EC50 (WRL68)/EC50 (PC-3) × 100) was determined as 124.9. For the same compound, the “growth inhibition of prostate cancer cells” value in test [2] is reported as “able to inhibit the growth of prostate cancer cells at a concentration below that typically used for curcumin”.
